{"source": "patent US20160113931A1", "about": "“Method of treating and/or preventing neurodegenerative diseases” (University of Macau, priority 2014, published 2016)", "key": {"zebrafish [1]": {"test_system": "zebrafish", "assay": "MPTP-induced dopaminergic neuron loss in zebrafish (TH whole-mount immunostaining)", "assay_type": "in vivo, Danio rerio", "conditions": "positive control, MPTP 48 h", "procedure": "Zebrafish at 1 dpf were exposed to BHDPC (3, 10, 30 μM) with or without MPTP for 48 h. Then fish were fixed for whole mount immunostaining. The morphology change of dopaminergic neurons in zebrafish brain was indicated by immunostaining with antibody against tyrosine hydroxylase (TH). Statistical analysis of TH density was accessed in each 10 fish/group. […] Zebrafish at 1 dpf were exposed to different concentrations of BHDPC with or without MPTP for 48 h. Then fish were fixed for whole mount immunostaining.\n(§1) The AB strain of wild type zebrafish (Danio rerio) was maintained as described in the Zebrafish Handbook. Zebrafish were staged by days post fertilization […]. For breeding, groups of male and female (3:2) adult zebrafish were placed in 10-L plastic aquarium equipped with spawning nets in the evening. In the following morning, eggs were collected from the breeding group tanks. Normally developed fertilized eggs were selected under a stereomicroscope for further studies. The MPTP manipulation was performed with appropriate safety precautions and all MPTP-containing water was bleached.\nWhole-mount immunostaining in zebrafish was performed as previously described. 3 dpf Zebrafish larvae were fixed with 4% paraformaldehyde in PBS for 30 min, […] (TH) staining was performed as previously described. Briefly, zebrafish were fixed in 4% paraformaldehyde in PBS for 5 h. Fixed samples were blocked (2% lamb serum and 0.1% BSA in PBST) for 1 h at room temperature. A mouse monoclonal anti-tyrosine hydroxylase (TH) antibody (Millipore, Billerica, MD, USA) was used as the primary antibody and incubated with samples overnight at 4° C. On the next day, samples were washed six times with PBST (each wash lasted 30 min), followed by incubation with Alexa Fluor® 488 goat anti-mouse antibodies. After immunostaining, zebrafish were mounted with 3.5% methylcellulose and photographed. Semi-quantification of the area of TH^+ cells was assessed by an investigator, unaware of the drug treatment, using Image-J software. Results are expressed as percentage of area of TH^+ cells in untreated normal control groups.\nIn this example, the in vivo animal model was used to determine the neuroprotective effect of BHDPC. Anti-tyrosine hydroxylase (TH) whole mount immunostaining was used to determine dopaminergic neuronal populations in zebrafish larvae (FIG. 15A). TH activity is the key enzyme responsible for dopamine biosynthesis in the CNS. […] The dopamine reuptake inhibitor nomifensine (Nom), which protected against MPTP-induced neurotoxicity in vivo was used as a positive control. The treatment of larvae with 30 μM of nomifensine, a positive control drug attenuated MPTP-induced neurotoxicity, with TH^+ density […] by 30% compared to the MPTP group.\nL-deprenyl, which is a substituted phenethylamine used in treatment of early Parkinson's disease, was used as a positive control."}, "zebrafish [2]": {"test_system": "zebrafish", "assay": "MPTP-induced deficit of locomotion behavior in zebrafish larvae", "assay_type": "in vivo, Danio rerio", "conditions": "150 μM L-dopa with MPTP, positive control", "procedure": "Three dpf zebrafish embryos were co-incubated with 10 μM MPTP and BHDPC at the indicated concentrations for 96 hours, and zebrafish larval co-treated with MPTP and 150 μM L-dopa was used as positive control. After treatment, zebrafish were collected to perform locomotion behavior test using Viewpoint Zebrabox system and total distances travelled in 10 min were calculated.\nas §1\nIn addition, MPTP markedly altered the swimming behavior of the zebrafish as a consequence of DA neuronal injury. […] BHDPC ameliorated MPTP-induced deficit of swimming behavior. At the same condition, MPTP-induced deficit of swimming behavior were rescued by positive controls, levodopa (L-dopa) (FIG. 16)."}}, "data": [{"molecule": "C#CCN(C)[C@H](C)Cc1ccccc1", "note": "[L-deprenyl, reference compound]", "values": [{"measurement": "TH+ density compared to the MPTP group (FIG. 15B)", "setting": "zebrafish [1]", "value": "significant increase"}]}, {"molecule": "N[C@@H](Cc1ccc(O)c(O)c1)C(=O)O", "note": "[levodopa, reference compound]", "values": [{"measurement": "MPTP-induced deficit of swimming behavior (total distance travelled in 10 min)", "setting": "zebrafish [2]", "value": "rescued"}]}, {"molecule": "CN1Cc2c(N)cccc2C(c2ccccc2)C1", "note": "(stereo not drawn) [nomifensine, reference compound]", "values": [{"measurement": "TH+ density reduced by, compared to the MPTP group", "setting": "zebrafish [1]; 30 μM nomifensine", "value": 30, "unit": "%"}]}]}
